Data on 13 molecules can be found in ChEMBL document CHEMBL3045243, “Synthesis of novel 3-chloro-1-(5H-dibenz[b,f]azepine-5yl)propan-1-one derivatives with antioxidant activity” (Med Chem Res, 2011).

Format in all cases: functional
Test [1] can be described thus: Antioxidant activity assessed as inhibition of CuSO4-induced human LDL oxidation at 25 uM at 6 hr by thibarbuteric acid assay.
Test [2] can be described thus: Antioxidant activity assessed as inhibition of CuSO4-induced human LDL oxidation at 10 uM at 6 hr by thibarbuteric acid assay.
Test [3] in a line: Antioxidant activity assessed as inhibition of CuSO4-induced human LDL oxidation at 10 uM at 2 hr by thibarbuteric acid assay.
Test [4] can be described thus: Antioxidant activity assessed as inhibition of CuSO4-induced human LDL oxidation at 25 uM at 2 hr by thibarbuteric acid assay.
Test [5] is described as follows: Antioxidant activity assessed as inhibition of linoleic acid oxidation at 25 uM up to 180 min by beta-carotene bleaching assay.
The nature of test [6]: Antioxidant activity assessed as inhibition of CuSO4-induced human LDL oxidation at 25 uM at 4 hr by thibarbuteric acid assay.
A short description of test [7]: Antioxidant activity assessed as inhibition of linoleic acid oxidation at 10 uM up to 180 min by beta-carotene bleaching assay.
The nature of test [8]: Antioxidant activity assessed as inhibition of CuSO4-induced human LDL oxidation at 10 uM at 4 hr by thibarbuteric acid assay.

Turning to `O=C(O)[C@H](Cc1c[nH]c2ccccc12)NCCC(=O)N1c2ccccc2C=Cc2ccccc21`, the inhibition worked out at 75.2% in test [1]; 73.5% in test [2]; 67.9% in test [3]; 71.2% in test [4]; 85.9% in test [5]; 73.2% in test [6]. Besides, the inhibition in test [7] was determined as 83.6%; in test [8] it was 70.8%.

For `O=C(O)[C@H](Cc1ccc(O)cc1)NCCC(=O)N1c2ccccc2C=Cc2ccccc21`, the inhibition in test [1] worked out at 83.5%; in test [2] it was 78.7%; in test [3] it was 70.5%; in test [4], 73.6%; in test [5], 89.1%; in test [6], 79.6%. For the same molecule, the inhibition in test [7] stood at 86.8%; in test [8], 75.5%.

`C[C@H](NCCC(=O)N1c2ccccc2C=Cc2ccccc21)C(=O)O`: the inhibition in test [1] is 12.1%; in test [2] it was 11%; in test [3], 8.92%; in test [4], 9.14%; in test [5], 15.4%; in test [6], 10.1%. Besides, the values for the inhibition in test [7] and in test [8] were 10% and 9.75%, respectively.

Regarding `O=C(O)[C@@H]1CCCN1CCC(=O)N1c2ccccc2C=Cc2ccccc21`, the inhibition was 17.4% in test [1]; 15.4% in test [2]; 11.9% in test [3]; 13.7% in test [4]; 6.15% in test [5]; 14.1% in test [6]. Besides, the values for the inhibition in test [7] and in test [8] were 4.22% and 13.6%, respectively.

`O=C(O)[C@H](Cc1ccccc1)NCCC(=O)N1c2ccccc2C=Cc2ccccc21`: the inhibition in test [1] stood at 18.7%; in test [2], 13.5%; in test [3] it was 9.98%; in test [4] it was 13.1%; in test [5], 8.3%; in test [6] it was 16.4%. Also, the figures for the inhibition in test [7] and in test [8] were 5.39% and 11.2%, respectively.

`O=C(O)[C@@H]1C(O)CCN1CCC(=O)N1c2ccccc2C=Cc2ccccc21` (some centres undefined): the inhibition in test [1] stood at 77.1%; in test [2], 75.8%; in test [3] it was 69.7%; in test [4], 73.7%; in test [5], 88.4%; in test [6], 75.5%. For the same molecule, the inhibition in test [7] amounted to 85.4%; in test [8], 73.5%.

For `CSCC[C@H](NCCC(=O)N1c2ccccc2C=Cc2ccccc21)C(=O)O`, the inhibition in test [1] was 61.6%; in test [2], 59.7%; in test [3], 54.6%; in test [4], 55%; in test [5], 67.3%; in test [6], 59.8%. Also, the values for the inhibition in test [7] and in test [8] were 52.6% and 57.9%, respectively.

As to `O=C1O[C@H]([C@@H](O)CO)C(O)=C1O`, the inhibition came to 92.2% in test [1]; 84.4% in test [2]; 74.3% in test [3]; 79.2% in test [4]; 90.4% in test [5]; 85.2% in test [6]. Further, the inhibition in test [7] came out at 87.2%; in test [8], 81.3%.

Turning to `O=C(O)[C@H](Cc1c[nH]cn1)NCCC(=O)N1c2ccccc2C=Cc2ccccc21`, the inhibition is 72.7% in test [1]; 68.5% in test [2]; 56.3% in test [3]; 68.3% in test [4]; 86.8% in test [5]; 70.1% in test [6]. In addition, the inhibition in test [7] came to 85%; in test [8], 65.7%.

On to `O=C(CCCl)N1c2ccccc2C=Cc2ccccc21`, for which the inhibition in test [1] is 12.4%; in test [2], 8.87%; in test [3], 5.34%; in test [4], 7.43%; in test [5], 4.24%; in test [6] it was 9.77%. In addition, the inhibition is 2.89% in test [7] and 6.87% in test [8].

Regarding `O=C(O)[C@H](CS)NCCC(=O)N1c2ccccc2C=Cc2ccccc21`, the inhibition turned out to be 75.8% in test [1]; 72.5% in test [2]; 67.3% in test [3]; 70.5% in test [4]; 84.4% in test [5]; 73.4% in test [6]. Besides, the inhibition in test [7] is 82.2%; in test [8] it was 69.8%.

Regarding `O=C(O)CNCCC(=O)N1c2ccccc2C=Cc2ccccc21`, the inhibition in test [1] came to 10.3%; in test [2], 10.2%; in test [3] it was 6.71%; in test [4] it was 8.24%; in test [5] it was 8.8%; in test [6], 7.92%. The inhibition in test [7] is 2.96%; in test [8] it was 7.95%.

As for `C[C@@H](O)[C@H](NCCC(=O)N1c2ccccc2C=Cc2ccccc21)C(=O)O`, the inhibition stood at 61.6% in test [1]; 57% in test [2]; 53.5% in test [3]; 56.2% in test [4]; 76% in test [5]; 59.6% in test [6]. The inhibition in test [7] amounted to 53.8%; in test [8] it was 55.5%.

What is called inhibition is the drop in the measured response relative to a control, in per cent.
